According to patent US20250002483A1, “S[…]-ALANINATE DERIVATIVES” (Bayer Aktiengesellschaft, priority 2021, published 2025):

Experiment: physchem
Settings: 25 °C, pH 4, aqueous buffer, thermodynamic from solid
Description: 25 mg compound are placed in 2 ml solvent. […] Thereafter, the solution or suspension is filtered and the remaining solution is analyzed via HPLC. The solubility is determined by comparison of the total area of the substance peak to a calibration curve (external standard).
Thereafter, the solution was centrifuged and analyzed via HPLC. The solubility was determined by comparison of the total area of the substance peak to a calibration curve (external standard). The measurements were conducted in triplicates.

## CCc1c(N2CC[C@H](O)C2=O)cccc1S(=O)(=O)N[C@@H](CNC(=O)c1ccc(Cl)s1)C(=O)OCCc1nccn1C.Cl [Example 2, 2-(1-Methyl-1H-imidazol-2-yl)ethyl 3-[(5-chlorothiophene-2-carbonyl)amino]-N-{2-ethyl-3-[(3S)-3-hydroxy-2-oxopyrrolidin-1-yl]benzene-1-sulfonyl}-S-alaninate hydrochloride]
  solubility: > 500 mg/mL
